For this assay, the target named is T1, mAChR M4 (UniProt P08173).
T1 construct: hM1 and hM4 cDNAs were purchased from Missouri S&T cDNA Resource
T1 sequence (P08173 1-479): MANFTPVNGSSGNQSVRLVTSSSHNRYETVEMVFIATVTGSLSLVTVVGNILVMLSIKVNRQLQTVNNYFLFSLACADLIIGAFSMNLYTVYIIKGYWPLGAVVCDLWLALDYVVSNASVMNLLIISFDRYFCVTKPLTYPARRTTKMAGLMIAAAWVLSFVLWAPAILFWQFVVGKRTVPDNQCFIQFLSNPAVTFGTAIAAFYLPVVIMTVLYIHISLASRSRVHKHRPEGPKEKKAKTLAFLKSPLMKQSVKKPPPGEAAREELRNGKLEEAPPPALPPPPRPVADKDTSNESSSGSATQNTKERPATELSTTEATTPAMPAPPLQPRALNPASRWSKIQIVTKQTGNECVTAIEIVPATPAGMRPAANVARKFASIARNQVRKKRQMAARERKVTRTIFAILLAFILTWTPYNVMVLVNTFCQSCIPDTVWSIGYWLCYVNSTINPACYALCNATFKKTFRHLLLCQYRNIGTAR
Kind of assay: mAChR M4 cell-based functional assay (calcium mobilization, Fluo-4, FDSS). The following applies: for Emax (%)*: % ACh maximum at 30 μM; for pEC50: positive allosteric modulator activity, EC20 acetylcholine response; for pEC50 / EC50: CHO-K1 cells; for EC50: positive allosteric modulator activity: concentration-dependent increase in the EC20 acetylcholine response, >10 μM estimated for low potency (no plateau). The source says: Chinese hamster ovary (CHO-K1) cells stably expressing rat (r)M1 were purchased from the American Type Culture Collection and cultured according to their indicated protocol. CHO cells stably expressing human (h)M2, hM3, and hM5 were described previously (Levey A I, et al., (1991) J Neurosci 11:3218-3226.); hM1 and hM4 cDNAs were purchased from Missouri S&T cDNA Resource; rM4 cDNA was provided by T. I. Bonner (National Institutes of Health, Bethesda, Md.). rM2 and rM3 were cloned from a rat brain cDNA library and sequence verified. hM1, rM2, rM3, hM4, and rM4 cDNAs were used to stably transfect CHO-K1 cells purchased from the American Type Culture Collection using Lipofectamine-2000. To make stable rM2, hM2, rM3, hM4, and rM4 cell lines for use in calcium mobilization assays, these cells also were stably transfected with a chimeric G-protein (Gqi5) (provided by B. R. Conklin, University of California, San Francisco) using Lipofectamine 2000. rM1, hM1, rM3, hM3, rM5, and hM5 cells were grown in Ham's F-12 medium containing 10% heat-inactivated fetal bovine serum (FBS), 20 mM HEPES, and 50 µg/mL G418 sulfate. rM2-Gqi5, hM2-Gqi5, and hM4-Gqi5 cells were grown in the same medium also containing 500 µg/mL Hygromycin B. Stable rM4-Gqi5 cells were grown in DMEM containing 10% heat-inactivated FBS, 20 mM HEPES, 400 µg/mL G418 sulfate, and 500 µg/mL Hygromycin B.
For high throughput measurement of agonist-evoked increases in intracellular calcium, CHO-K1 cells stably expressing the target muscarinic receptor were plated in growth medium lacking G418 and hygromycin at 15,000 cells/20 μL/well in Greiner 384-well black-walled, tissue culture (TC)-treated, clear-bottom plates (VWR). Cells were incubated overnight at 37° C. and 5% CO2. The next day, cells were washed using an ELX 405 (BioTek) with four washes (80 μL) of assay buffer then aspirated to 20 μL. Next, […] of 16 μM Fluo-4/acetoxymethyl ester (Invitrogen, Carlsbad, Calif.) prepared as a 2.3 mM stock in DMSO and mixed in a 1:1 ratio with 10% (w/v) Pluronic F-127 and diluted in assay buffer was added to the wells and the cell plates were incubated for 50 min at 37° C. and 5% CO2. Dye was removed by washing with the ELX 405 (four 80 μL washes of assay buffer) then aspirated to 20 μL. Compound master plates were formatted in an 11 point CRC format (1:3 dilutions) in 100% DMSO with a starting concentration of 10 mM using the BRAVO liquid handler (Agilent). Test compound CRCs were then transferred to daughter plates (240 nL) using the Echo acoustic plate reformatter (Labcyte, Sunnyvale, Calif.) and then diluted into assay buffer (40 μL) to a 2× stock using a Thermo Fisher Combi (Thermo Fisher Scientific, Waltham, Mass.).
Calcium flux was measured using the Functional Drug Screening System (FDSS) 6000 (Hamamatsu Corporation, Tokyo, Japan) as an increase in the fluorescent static ratio. Compounds were applied to cells (20 μL, 2×) using the automated system of the FDSS 6000 at 4 s into the 300 s protocol and the data were collected at 1 Hz. At 144 s into the 300 s protocol, 10 μL of an EC20 concentration of the muscarinic receptor agonist acetylcholine was added (5×), followed by the addition of 12 μL an EC80 concentration of acetylcholine at the 230 s time point (5×). Agonist activity was analyzed as a concentration-dependent increase in calcium mobilization upon compound addition. Positive allosteric modulator activity was analyzed as a concentration-dependent increase in the EC20 acetylcholine response. Antagonist activity was analyzed as a concentration-dependent decrease in the EC80 acetylcholine response. Concentration-response curves were generated using a four-parameter logistical equation in XLfit curve fitting software (IDBS, Bridgewater, N.J.) for Excel (Microsoft, Redmond, Wash.) or Prism (GraphPad Software, Inc., San Diego, Calif.). […]

The source of these data is US9056876B2, “Substituted 1H-pyrazolo[3′,4′,4,5]thieno[2,3-b]pyridin-3-amine analogs as positive allosteric modulators of the muscarinic acetylcholine receptor M4” (VANDERBILT UNIVERSITY, priority 2011, dated 2015).

The structures appear in SMILES notation. A value given as a limit tells only on which side of the number the result lay.

Regarding `Cc1cc(C)c2c(n1)sc1c(NC3CCSC3)nn(CCO)c12` (stereo not shown) [Compound 109, 2-(6,8-dimethyl-3-((tetrahydrothiophen-3-yl)amino)-1H-pyrazolo[3′,4′:4,5]thieno[2,3-b]pyridin-1-yl)ethanol], the “Emax (%)*” value came to 68%, the negative logarithm of the EC50 (pEC50) is recorded as 6.70 and the EC50 is 200 nM.
Take `Cc1cc(C)c2c(n1)sc1c(NCC3CCN(C(=O)OC(C)(C)C)CC3)nn(C)c12` [Compound 122, tert-butyl 4-(((1,6,8-trimethyl-1H-pyrazolo[3′,4′:4,5]thieno[2,3-b]pyridin-3-yl)amino)methyl)piperidine-1-carboxylate]: the “Emax (%)*” value was found to be 27%, the pEC50 is under 5.00 and the EC50 was over 10000 nM.
Regarding `Cc1cc(C)c2c(n1)sc1c(NC3CCCCC3)nn(C)c12` [Compound 66, N-cyclohexyl-1,6,8-trimethyl-1H-pyrazolo[3′,4′:4,5]thieno[2,3-b]pyridin-3-amine], the “Emax (%)*” value came to 73%, the negative logarithm of the EC50 (pEC50) turned out to be 5.92 and the concentration giving a half-maximal response (EC50) was 1200 nM.
Take `Cc1nc2sc3c(NCc4ccc(F)cc4)n[nH]c3c2c(C)c1Cl` [Compound 145, 7-chloro-N-(4-fluorobenzyl)-6,8-dimethyl-1H-pyrazolo[3′,4′:4,5]thieno[2,3-b]pyridin-3-amine]: the negative logarithm of the EC50 (pEC50) is recorded as under 5.00 and the EC50 is over 10000 nM.
With `Cc1cc(C)c2c(n1)sc1c(NC(C)C)n[nH]c12` [Compound 11, N-isopropyl-6,8-dimethyl-1H-pyrazolo[3′,4′:4,5]thieno[2,3-b]pyridin-3-amine], the “Emax (%)*” value was 59%, the pEC50 was 5.62 and the 50% effective concentration (EC50) was 2410 nM.
As to `Cc1cc(C)c2c(n1)sc1c(NC(C)C)nn(C)c12` [Compound 41, N-isopropyl-1,6,8-trimethyl-1H-pyrazolo[3′,4′:4,5]thieno[2,3-b]pyridin-3-amine], the “Emax (%)*” value worked out at 87%, the pEC50 worked out at 6.11 and the EC50 was 780 nM.
In the same order, the values of `Cc1cc(C)c2c(n1)sc1c(NC3CCOC3)nn(C)c12` (stereo not shown) [Compound 103, 1,6,8-trimethyl-N-(tetrahydrofuran-3-yl)-1H-pyrazolo[3′,4′:4,5]thieno[2,3-b]pyridin-3-amine] are 67%, 6.62 and 240 nM.
As for `Cc1cc(C)c2c(n1)sc1c(NCCC(C)(C)C)n[nH]c12` [Compound 124, N-(3,3-dimethylbutyl)-6,8-dimethyl-1H-pyrazolo[3′,4′:4,5]thieno[2,3-b]pyridin-3-amine], the pEC50 is on record as under 5.00 and the EC50 was over 10000 nM.
Turning to `Cc1cc(C)c2c(n1)sc1c(NCc3cc(C#N)ccc3F)nn(C)c12` [Compound 91, 4-fluoro-3-(((1,6,8-trimethyl-1H-pyrazolo[3′,4′:4,5]thieno[2,3-b]pyridin-3-yl)amino)methyl)benzonitrile], the “Emax (%)*” value is reported as 57%, the pEC50 stood at 6.66 and the EC50 is 220 nM.
With `Cc1cc(C)c2c(n1)sc1c(N)nn(C(=O)OC(C)(C)C)c12` [Compound 125, tert-butyl 3-amino-6,8-dimethyl-1H-pyrazolo[3′,4′:4,5]thieno[2,3-b]pyridine-1-carboxylate], the pEC50 is reported as under 5.00 and the EC50 is over 10000 nM.
With `Cc1cc(C)c2c(n1)sc1c(NCc3[nH]cnc3C)nn(C)c12` [Compound 92, 1,6,8-trimethyl-N-((4-methyl-1H-imidazol-5-yl)methyl)-1H-pyrazolo[3′,4′:4,5]thieno[2,3-b]pyridin-3-amine], the “Emax (%)*” value worked out at 50%, the pEC50 was determined as 6.37 and the EC50 is 430 nM.
For the molecule `CCNc1n[nH]c2c1sc1nc(C)cc(C)c12` [Compound 15, N-ethyl-6,8-dimethyl-1H-pyrazolo[3′,4′:4,5]thieno[2,3-b]pyridin-3-amine], the “Emax (%)*” value is 65%, the pEC50 stood at 5.68 and the EC50 was 2100 nM.
On to `Cc1cc(C)c2c(n1)sc1c(NCC(C)(C)C)nn(C)c12` [Compound 104, 1,6,8-trimethyl-N-neopentyl-1H-pyrazolo[3′,4′:4,5]thieno[2,3-b]pyridin-3-amine], for which the “Emax (%)*” value is recorded as 61%, the pEC50 was determined as 6.00 and the EC50 was 1000 nM.
With `Cc1cc(C)c2c(n1)sc1c(NC(C)CS(C)(=O)=O)nn(C)c12` (stereo not shown) [Compound 164, 1,6,8-trimethyl-N-(1-(methylsulfonyl)propan-2-yl)-1H-pyrazolo[3′,4′:4,5]thieno[2,3-b]pyridin-3-amine], the pEC50 was under 5.00 and the EC50 is over 10000 nM.
`Cc1ccc(CNc2nn(C)c3c2sc2nc(C)cc(C)c23)c(C)c1` [Compound 59, N-(2,4-dimethylbenzyl)-1,6,8-trimethyl-1H-pyrazolo[3′,4′:4,5]thieno[2,3-b]pyridin-3-amine]: the “Emax (%)*” value is recorded as 57%, the pEC50 is on record as 5.60 and the EC50 is 2500 nM.
On to `Cc1cc(C)c2c(n1)sc1c(NC3CCN(C)C3)nn(C)c12` (stereo not shown) [Compound 105, ,6,8-trimethyl-N-(1-methylpyrrolidin-3-yl)-1H-pyrazolo[3′,4′:4,5]thieno[2,3-b]pyridin-3-amine], for which the “Emax (%)*” value is 35%, the pEC50 is given as under 5.00 and the EC50 was over 10000 nM.
Taken in the same sequence, the figures for `Cc1ccc2c(n1)sc1c(NCc3ccc(Cl)cc3)n[nH]c12` [Compound 49, N-(4-chlorobenzyl)-6-methyl-1H-pyrazolo[3′,4′:4,5]thieno[2,3-b]pyridin-3-amine] were 37%, 5.47 and 3400 nM.
`Cc1nc2sc3c(N)nn(C)c3c2c(C)c1Cl` [Compound 23, 7-chloro-1,6,8-trimethyl-1H-pyrazolo[3′,4′:4,5]thieno[2,3-b]pyridin-3-amine]: the “Emax (%)*” value stood at 50%, the pEC50 came to 6.07 and the EC50 is 850 nM.
Regarding `Cc1ccc2c(n1)sc1c(NC(=O)c3ccc(Br)cc3)nn(C)c12` [Compound 158, 4-bromo-N-(1,6-dimethyl-1H-pyrazolo[3′,4′:4,5]thieno[2,3-b]pyridin-3-yl)benzamide], the pEC50 was under 5.00 and the EC50 was over 10000 nM.
On to `Cc1cc(C)c2c(n1)sc1c(N)nn(C)c12` [Compound 29, 1,6,8-trimethyl-1H-pyrazolo[3′,4′:4,5]thieno[2,3-b]pyridin-3-amine], for which the “Emax (%)*” value is 49%, the pEC50 was under 5.00 and the EC50 was over 10000 nM.

In general, pEC50 refers to the negative decadic logarithm of the EC50, by convention in mol/L. A word on the EC50: it is the concentration needed to bring the measured effect to its halfway point.
